# Key:
# [1] = Surface tension measurements by pendant drop method in water (cmc and surface properties); format: physicochemical; conditions: for Amin (nominal surface area per molecule) / Γmax × 10^6 (highest surface access at the air-water interface): air-water interface; for πcmc (ability to lower the surface tension of water) / γcmc (surface tension at cmc) / cmc (critical micelle concentration) / surface tension at all investigated concentrations (rank among surfactants): water; for γcmc (surface tension at cmc) / cmc (critical micelle concentration): pendant drop; for cmc (critical micelle concentration): intersection of two lines in plot of surface tension versus concentration; for surface tension at all investigated concentrations (rank among surfactants): FIGS. 9 and 10
# Experimental: Surface Properties. Surface tensions were identified with the help of pendant drop method at 20° C. using Biolin Scientific Attension instrument. Water was used as a solvent for all surface tension experiments. The reported data points of all surface tension measurements are average equilibrium values. The critical micelle concentration (cmc) was measured from the intersection point of two lines in the plot of surface tension versus concentration.
# Surface Tension Measurements. […] The surface properties can be related to the different chain length, spacer length, spacer rigidity, and to the presence of different counterions in the gemini surfactants.
# The gemini surfactant ability to lower the surface tension of water (πcmc), highest surface access (rmax) at the interface of air-water, as well as nominal surface area per molecule (Amin) was given in Table 1. The method used to calculate these properties was also given in our previous publication; Hussain S S, Animashaun M A, Kamal M S, Ullah N, Hussein I A, Sultan A S (2016) Synthesis, Characterization and Surface Properties of Amidosulfobetaine Surfactants Bearing Odd-Number Hydrophobic Tail. J Surfactants Deterg 19 (2):413-420, incorporated herein by reference in its entirety.
# [2] = Long-term thermal stability: aging of aqueous solutions, followed by NMR and FTIR; format: physicochemical; conditions: aqueous solution, sealed tube, 90° C., 10 days
# Experimental: Long-Term Thermal Stability. Long-term thermal stability was assessed using a novel approach based on an aging technique. Aqueous solutions of gemini surfactants (1)-(6) were aged in a sealed tube for 10 days at 90° C. NMR (^1H, ^13C) and FTIR instruments were used to identify the changes in the structure of the surfactants after aging.
# The short-term and long-term thermal stability of the synthesized gemini surfactants (1)-(6) were investigated. […] (FIG. 2). The long-term thermal stability of the gemini surfactants (1)-(6) was examined using a novel approach based on aging technique where the aqueous solutions of surfactants were aged in a sealed tube at 90° C. for 10 days. NMR (^1H, ^13C) and FTIR instruments were used to study the change in the structure of the surfactants after aging at a different period. […]
# Similarly, the olefinic protons in the spacer group of 10 days aged sample of gemini surfactants 1 (FIG. 3) were also detected. […]
# According to ^13C NMR spectra of the 10 days aged samples of gemini surfactants (1) and (6)(FIGS. 4 and 6), the methyl [—(CH2)n—CH3)] and methylene carbon in hydrophobic tail of gemini surfactants (1) and (6) were clearly identified. […] The olefinic carbon in hydrophobic tail of gemini surfactant (6) (FIG. 6) as well as the olefinic carbon in spacer group of gemini surfactant 1 (FIG. 4) were also detected. […]
# [3] = aqueous solution; cited from earlier work
Structure (SMILES),Amin (nominal surface area per molecule) [1] [nm^2],Γmax × 10^6 (highest surface access at the air-water interface) [1] [mol m^−2],πcmc (ability to lower the surface tension of water) [1] [mN m^−1],γcmc (surface tension at cmc) [1] [mN m^−1],cmc (critical micelle concentration) [1] [mol/L],"long-term thermal stability (structure change by NMR, FTIR after aging) [2]",surface tension at all investigated concentrations (rank among surfactants) [1],temperature of prolonged heating that causes decomposition [3] [°C]
CCCCCCCC/C=C\CCCCCCCC(=O)NCCC[N+](C)(C)C/C=C\C[N+](C)(C)CCCNC(=O)CCCCCCC/C=C\CCCCCCCC.[Cl-].[Cl-] [Surfactant 4],1.01,1.64,34.77,37.23,0.000291,–,–,–
CCCCCCCCCCCC(=O)NCCC[N+](C)(C)C/C=C/C[N+](C)(C)CCCNC(=O)CCCCCCCCCCC.[Br-].[Br-] [Surfactant 1],0.91,1.81,35.77,36.23,0.000256,no structural changes occurred,–,–
CCCCCCCCCCCC(=O)NCCC[N+](C)(C)C/C=C\C[N+](C)(C)CCCNC(=O)CCCCCCCCCCC.[Cl-].[Cl-] [Surfactant 2],1.05,1.60,33.88,38.12,–,–,highest surface tension,–
CCCCCCCC/C=C\CCCCCCCC(=O)NCCC[N+](C)(C)C/C=C/C[N+](C)(C)CCCNC(=O)CCCCCCC/C=C\CCCCCCCC.[Br-].[Br-] [Surfactant 3],0.86,1.92,36.33,35.67,0.000158,–,–,–
"CCCCCCCCCCCCOS(=O)(=O)[O-].[Na+] [sodium dodecyl sulfate (SDS), sodium dodecyl sulfate]",–,–,–,–,–,–,–,≥ 40
CCCCCCCC/C=C\CCCCCCCC(=O)NCCC[N+](C)(C)CCCCCC[N+](C)(C)CCCNC(=O)CCCCCCC/C=C\CCCCCCCC.[Br-].[Br-] [Surfactant 6],0.70,2.38,41.66,30.34,7.7e-05,no structural changes occurred,least surface tension,–
CCCCCCCC/C=C\CCCCCCCC(=O)NCCC[N+](C)(C)CCCC[N+](C)(C)CCCNC(=O)CCCCCCC/C=C\CCCCCCCC.[Br-].[Br-] [Surfactant 5],0.73,2.26,39.08,32.92,0.000105,–,–,–
